Where a name gives a salt, the structure may show the parent alone. Read-outs that look alike come from different tables or passages of the source.

The source of these data is US12391671B2, “Allosteric EGFR inhibitors and methods of use thereof” (Dana-Farber Cancer Institute, Inc., priority 2019, dated 2025).

In one experiment the target is EGFR L858R (Homo sapiens (Human), UniProt P00533, L858R). The experiment is described as follows: HTRF-based EGFR biochemical assay (L858R). As to conditions: 100 μM ATP, enzyme 0.1 nM. The gist of the method: (§1)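 Mutant EGFR (L858R 0.1 nM, L858R/T790M 0.02 nM) preincubated 30 min with compounds at room temperature in HEPES pH 7.0 buffer with Mg2+/Mn2+, then reacted 20 min with 1 μM biotinylated tyrosine kinase peptide and 100 μM ATP. Phosphorylation read by HTRF (Eu-cryptate anti-phosphotyrosine/streptavidin-XL665, 665/620 nm) after EDTA quench.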
Chain of EGFR L858R (P00533 25-1210 L858R): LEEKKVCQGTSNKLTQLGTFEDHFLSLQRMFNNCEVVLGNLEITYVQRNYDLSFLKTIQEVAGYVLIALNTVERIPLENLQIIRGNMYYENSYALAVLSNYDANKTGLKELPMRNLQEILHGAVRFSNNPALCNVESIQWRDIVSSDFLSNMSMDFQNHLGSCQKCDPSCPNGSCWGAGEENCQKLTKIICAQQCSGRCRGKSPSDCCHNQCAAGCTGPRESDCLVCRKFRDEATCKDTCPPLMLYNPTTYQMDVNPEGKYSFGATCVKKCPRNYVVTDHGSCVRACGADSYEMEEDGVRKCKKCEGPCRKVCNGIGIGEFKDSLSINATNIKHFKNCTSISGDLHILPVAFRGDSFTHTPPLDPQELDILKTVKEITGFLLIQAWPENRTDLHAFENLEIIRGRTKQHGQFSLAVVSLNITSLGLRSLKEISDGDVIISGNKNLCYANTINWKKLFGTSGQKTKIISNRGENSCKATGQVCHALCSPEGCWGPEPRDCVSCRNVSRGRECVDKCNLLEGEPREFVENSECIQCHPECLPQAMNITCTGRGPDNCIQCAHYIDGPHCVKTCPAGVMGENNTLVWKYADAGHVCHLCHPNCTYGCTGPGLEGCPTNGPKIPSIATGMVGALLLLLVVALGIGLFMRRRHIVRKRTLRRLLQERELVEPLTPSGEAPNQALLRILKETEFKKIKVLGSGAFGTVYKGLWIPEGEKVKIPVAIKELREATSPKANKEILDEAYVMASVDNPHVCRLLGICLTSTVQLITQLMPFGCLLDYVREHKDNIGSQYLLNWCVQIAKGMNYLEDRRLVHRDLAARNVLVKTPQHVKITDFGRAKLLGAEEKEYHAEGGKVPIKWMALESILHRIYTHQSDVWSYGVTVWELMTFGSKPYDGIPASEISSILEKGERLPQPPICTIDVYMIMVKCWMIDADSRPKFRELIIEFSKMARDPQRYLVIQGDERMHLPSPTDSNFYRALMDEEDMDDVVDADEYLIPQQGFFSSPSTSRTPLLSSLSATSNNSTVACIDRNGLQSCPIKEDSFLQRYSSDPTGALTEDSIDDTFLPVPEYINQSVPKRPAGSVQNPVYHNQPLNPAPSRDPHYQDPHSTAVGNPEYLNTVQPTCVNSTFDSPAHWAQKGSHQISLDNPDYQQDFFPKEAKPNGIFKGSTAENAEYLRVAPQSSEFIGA
For orientation: TR-FRET usually uses a lanthanide donor and a delayed reading to cut background.

The next experiment addresses EGFR L858R/T790M (Homo sapiens (Human), UniProt P00533, L858R/T790M). The experiment in a line: HTRF-based EGFR biochemical assay (L858R/T790M). As to conditions: 100 μM ATP, enzyme 0.02 nM. The gist of the method:
as §1

The subject of experiment [1] is EGFR mutant L858R/T790M Ba/F3 cells. The experiment in a line: Ba/F3 cell proliferation model (Cell Titer Glo), EGFR L858R/T790M. The class given is cell-based, murine. As to conditions: 72 hours. The method, boiled down:
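Retrovirally transduced Ba/F3 cells exposed 72 h to compound alone or with 1 μg/mL cetuximab, triplicate points, repeated at least three times. Viability by Cell Titer Glo luminescence (ATP); curves fitted by non-linear sigmoidal dose-response regression.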
In general terms: In ATP-based viability assays light output follows the ATP content of the culture.

The mark [2] stands for this setting: Mus musculus, BaF3, single agent, read-out: Cell IC50 BaF3 EGFR L858R/T790M.
Where [3] appears, read: in combination with 1 μg/mL cetuximab, read-out: Cell IC50 BaF3 EGFR L858R/T790M (+cetux.).

Chain of EGFR L858R/T790M (P00533 25-1210 T790M/L858R): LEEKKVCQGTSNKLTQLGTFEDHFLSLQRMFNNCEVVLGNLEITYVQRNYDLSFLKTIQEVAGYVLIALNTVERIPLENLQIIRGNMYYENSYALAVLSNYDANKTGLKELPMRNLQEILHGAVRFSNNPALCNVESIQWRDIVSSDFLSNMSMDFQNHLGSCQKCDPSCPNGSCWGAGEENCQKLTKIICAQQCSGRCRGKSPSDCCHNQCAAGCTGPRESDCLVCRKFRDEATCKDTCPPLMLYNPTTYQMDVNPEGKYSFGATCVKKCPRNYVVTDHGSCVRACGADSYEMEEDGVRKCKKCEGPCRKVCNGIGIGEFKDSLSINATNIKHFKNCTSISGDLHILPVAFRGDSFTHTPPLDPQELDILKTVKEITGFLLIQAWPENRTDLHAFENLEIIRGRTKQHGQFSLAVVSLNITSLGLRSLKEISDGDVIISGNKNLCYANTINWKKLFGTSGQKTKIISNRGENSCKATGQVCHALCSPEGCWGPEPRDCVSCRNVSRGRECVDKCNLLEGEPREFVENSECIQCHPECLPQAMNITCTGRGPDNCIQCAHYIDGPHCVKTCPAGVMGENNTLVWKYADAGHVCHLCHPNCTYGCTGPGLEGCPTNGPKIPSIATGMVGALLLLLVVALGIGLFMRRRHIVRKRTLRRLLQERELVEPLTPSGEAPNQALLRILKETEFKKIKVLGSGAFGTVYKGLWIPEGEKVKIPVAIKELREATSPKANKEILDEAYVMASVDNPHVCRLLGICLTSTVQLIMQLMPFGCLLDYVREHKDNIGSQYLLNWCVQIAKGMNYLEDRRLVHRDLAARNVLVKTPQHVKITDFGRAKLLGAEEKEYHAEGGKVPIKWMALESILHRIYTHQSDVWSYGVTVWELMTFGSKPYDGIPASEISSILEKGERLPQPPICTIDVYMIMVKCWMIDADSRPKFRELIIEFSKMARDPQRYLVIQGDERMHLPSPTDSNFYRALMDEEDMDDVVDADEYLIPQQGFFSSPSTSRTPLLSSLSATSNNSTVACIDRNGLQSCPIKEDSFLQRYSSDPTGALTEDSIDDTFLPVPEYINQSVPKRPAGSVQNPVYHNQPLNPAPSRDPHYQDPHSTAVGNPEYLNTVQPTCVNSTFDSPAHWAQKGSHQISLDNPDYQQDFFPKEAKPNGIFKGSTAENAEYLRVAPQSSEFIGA

As for `CN1CCC(C#Cc2ccc3c(c2)C(=O)N(C(c2nc4ccccc4[nH]2)c2cc(F)ccc2O)C3)CC1` (stereo not shown) [Compound 011, 2-[1H-benzimidazol-2-yl-(5-fluoro-2-hydroxy-phenyl)methyl]-6-[2-(1-methyl-4-piperidyl)-ethynyl]isoindolin-1-one; hydrochloride], the IC50 came out at 15 nM against EGFR L858R, 10 nM on EGFR L858R/T790M, 1920 nM in experiment [1] (setting [2]) and 10 nM in experiment [1] (setting [3]).

For `O=C1c2cc(-c3ccc(-c4cn[nH]c4)cc3)ccc2CN1C(c1nc2ccccc2[nH]1)c1cc(F)ccc1O` (stereo not shown) [Compound 057, 2-[1H-benzimidazol-2-yl-(5-fluoro-2-hydroxy-phenyl)-methyl]-6-[4-(1H-pyrazol-4-yl)-phenyl]isoindolin-1-one], the IC50 at EGFR L858R turned out to be 37 nM; against EGFR L858R/T790M, 17 nM; in experiment [1] (setting [2]), 550 nM; in experiment [1] (setting [3]), 10 nM.

For the compound `CN1CCC(c2ccc(-c3ccc4ncn(C(c5cccc(F)c5)c5nc6ccccc6[nH]5)c(=O)c4c3F)cc2)CC1` (stereo not shown) [Compound 005, 3-((1H-Benzo[d]imidazol-2-yl)(3-fluorophenyl)methyl)-5-fluoro-6-(4-(1-methylpiperidin-4-yl)phenyl)-quinazolin-4(3H)-one 2,2,2-trifluoroacetate], the IC50 is 8 nM against EGFR L858R, 1 nM against EGFR L858R/T790M, 1220 nM in experiment [1] (setting [2]) and 20 nM in experiment [1] (setting [3]).

Regarding `CN1CCC(c2ccc(-c3ccc4c(c3)C(=O)N(C(c3nc5ccccc5[nH]3)c3cc(F)ccc3O)C4)c(F)c2)CC1` (stereo not shown) [Compound 029, 2-[1H-benzimidazol-2-yl-(5-fluoro-2-hydroxy-phenyl)-methyl]-6-[2-fluoro-4-(1-methyl-4-piperidyl)phenyl]isoindolin-1-one; formic acid], the IC50 against EGFR L858R is 2 nM; on EGFR L858R/T790M, 0.6 nM; in experiment [1] (setting [2]) it was 760 nM; in experiment [1] (setting [3]) it was 20 nM.

Turning to `O=C1c2cc(-c3ccc(C4CCNCC4)cc3)ccc2CN1C(c1nc2ccccc2[nH]1)c1cc(F)ccc1O` (stereo not shown) [Compound 062, 2-[1H-benzimidazol-2-yl-(5-fluoro-2-hydroxy-phenyl)-methyl]-6-[4-(4-piperidyl)-phenyl]isoindolin-1-one; hydrochloride], the IC50 stood at 3 nM against EGFR L858R, 0.7 nM at EGFR L858R/T790M, 650 nM in experiment [1] (setting [2]) and 20 nM in experiment [1] (setting [3]).

For the compound `CN1CCC(c2ccc(-c3ccc4c(c3)C(=O)N(C(c3nc5cccnc5[nH]3)c3n[nH]c5c3CCC5)C4)cc2)CC1` (stereo not shown) [Compound 031, 2-[1H-Imidazo[4,5-b]pyridin-2-yl(1,4,5,6-tetrahydrocyclopenta[c]pyrazol-3-yl)methyl]-6-[4-(1-methyl-4-piperidy)phenyl]isoindolin-1-one], the IC50 was 45 nM against EGFR L858R, 8 nM against EGFR L858R/T790M, over 10000 nM in experiment [1] (setting [2]) and 370 nM in experiment [1] (setting [3]).

For the compound `CN1CCC(c2ccc(-c3ccc4c(c3)C(=O)N(C(c3nc5ccccc5[nH]3)c3cccc(F)c3O)C4)cc2)CC1` (stereo not shown) [Compound 042, 2-[1H-benzimidazol-2-yl-(3-fluoro-2-hydroxy-phenyl)-methyl]-6-[4-(1-methyl-4-piperidyl)phenyl]isoindolin-1-one; dihydrochloride], the IC50 on EGFR L858R was found to be 31 nM; against EGFR L858R/T790M, 13 nM; in experiment [1] (setting [2]) it was 4000 nM; in experiment [1] (setting [3]), 240 nM.

For `CN1CCC(c2ccc(-c3ccc4c(c3)C(=O)N([C@H](c3nc5ccccc5[nH]3)c3cc(F)ccc3O)C4)cc2)CC1` (single isomer, unassigned) [Compound 023], the IC50 is 6 nM against EGFR L858R, 1 nM on EGFR L858R/T790M, 950 nM in experiment [1] (setting [2]) and 20 nM in experiment [1] (setting [3]).

As for `CN1CCC(c2ccc(-c3ccc4ncn(C(c5nc6ccccc6[nH]5)c5cc(F)ccc5O)c(=O)c4c3F)cc2F)CC1` (stereo not shown) [Compound 007, 3-[1H-benzimidazol-2-yl-(5-fluoro-2-hydroxy-phenyl)methyl]-5-fluoro-6-[3-fluoro-4-(1-methyl-4-piperidyl)phenyl]quinazolin-4-one; hydrochloride], the IC50 was 1 nM against EGFR L858R, 0.4 nM against EGFR L858R/T790M, 520 nM in experiment [1] (setting [2]) and 9 nM in experiment [1] (setting [3]).

Consider `Cc1ccc2[nH]c(C(c3cc(F)ccc3O)N3Cc4ccc(-c5ccc(C6CCN(C)CC6)cc5)cc4C3=O)nc2c1` (stereo not shown) [Compound 050, 2-[(5-fluoro-2-hydroxy-phenyl)-(5-methyl-1H-benzimidazol-2-yl)methyl]-6-[4-(1-methyl-4-piperidyl)phenyl]isoindolin-1-one; formic acid], for which the IC50 was 21 nM against EGFR L858R, 2 nM against EGFR L858R/T790M, 3850 nM in experiment [1] (setting [2]) and 850 nM in experiment [1] (setting [3]).

`CN1CC(c2ccc(-c3ccc4c(c3)C(=O)N(C(c3nc5ccccc5[nH]3)c3cc(F)ccc3O)C4)cc2)C1` (stereo not shown) [Compound 049, 2-[1H-benzimidazol-2-yl-(5-fluoro-2-hydroxy-phenyl)methyl]-6-[4-(1-methylazetidin-3-yl)phenyl]isoindolin-1-one]: the IC50 on EGFR L858R amounted to 6 nM; on EGFR L858R/T790M it was 2 nM; in experiment [1] (setting [2]) it was 2540 nM; in experiment [1] (setting [3]), 20 nM.

As for `Cc1c(-c2ccc(C3CCN(C)CC3)cc2)ccc2ncn(C(c3nc4ccccc4[nH]3)c3cc(F)ccc3O)c(=O)c12` (stereo not shown) [Compound 055, 3-[1H-benzimidazol-2-yl-(5-fluoro-2-hydroxy-phenyl)-methyl]-5-methyl-6-[4-(1-methyl-4-piperidyl)phenyl]-quinazolin-4-one; dihydrochloride], the IC50 at EGFR L858R was determined as 2 nM; against EGFR L858R/T790M it was 1 nM; in experiment [1] (setting [2]), 100 nM; in experiment [1] (setting [3]), 10 nM.

For the compound `CN1CCC(c2ccc(-c3ccc4c(c3)C(=O)N(C(c3nc5c(Cl)cccc5[nH]3)c3cc(F)ccc3O)C4)cc2)CC1` (stereo not shown) [Compound 047, 2-[(4-chloro-1H-benzimidazol-2-yl)-(5-fluoro-2-hydroxy-phenyl)-methyl]-6-[4-(1-methyl-4-piperidyl)phenyl]isoindolin-1-one; formic acid], the IC50 stood at 14 nM against EGFR L858R, 2 nM against EGFR L858R/T790M, 1840 nM in experiment [1] (setting [2]) and 80 nM in experiment [1] (setting [3]).

Regarding `CN1CCC(c2ccc(-c3ccc4c(c3)C(=O)N(C(c3nc5cc(F)ccc5[nH]3)c3cc(F)ccc3O)C4)cc2)CC1` (stereo not shown) [Compound 046, 2-[(5-fluoro-1H-benzimidazol-2-yl)-(5-fluoro-2-hydroxy-phenyl)-methyl]-6-[4-(1-methyl-4-piperidyl)phenyl]isoindolin-1-one; formic acid], the IC50 against EGFR L858R came out at 4 nM; at EGFR L858R/T790M, 0.7 nM; in experiment [1] (setting [2]) it was 860 nM; in experiment [1] (setting [3]), 20 nM.

`CN1CCC(c2ccc(-c3ccc4c(c3)C(=O)N(C(c3nc5cnccc5[nH]3)c3cc(F)ccc3O)C4)cc2)CC1` (stereo not shown) [Compound 015, 2-[(5-Fluoro-2-hydroxy-phenyl)-(1H-imidazo[4,5-c]pyridin-2-yl)methyl]-6-[4-(1-methyl-4-piperidyl)phenyl]isoindolin-1-one;hydrochloride]: the IC50 was 15 nM on EGFR L858R, 2 nM at EGFR L858R/T790M, 1100 nM in experiment [1] (setting [2]) and 20 nM in experiment [1] (setting [3]).

For `CN1CCC(n2cc(-c3ccc4c(c3)C(=O)N(C(c3nc5ccccc5[nH]3)c3cc(F)ccc3O)C4)cn2)CC1` (stereo not shown) [Compound 060, 2-[1H-benzimidazol-2-yl-(5-fluoro-2-hydroxy-phenyl)-methyl]-6-[1-(1-methyl-4-piperidyl)pyrazol-4-yl]isoindolin-1-one; hydrochloride], the IC50 at EGFR L858R was 27 nM; on EGFR L858R/T790M, 18 nM; in experiment [1] (setting [2]), 5500 nM; in experiment [1] (setting [3]), 110 nM.

Take `CN1CCC(F)(c2ccc(-c3ccc4c(c3)C(=O)N(C(c3nc5ccccc5[nH]3)c3cc(F)ccc3O)C4)cc2)CC1` (stereo not shown) [Compound 016, 2-[1H-Benzimidazol-2-yl-(5-fluoro-2-hydroxy-phenyl)methyl]-6-[4-(4-fluoro-1-methyl-4-piperidyl)phenyl]isoindolin-1-one; hydrochloride]: the IC50 at EGFR L858R amounted to 3 nM; against EGFR L858R/T790M it was 0.7 nM; in experiment [1] (setting [2]), 590 nM; in experiment [1] (setting [3]), 10 nM.

`CN1CCC(c2ccc(-c3ccc4c(c3)C(=O)N(C(c3cccc(F)c3)c3nc5ccccc5[nH]3)C4)cc2)CC1` (stereo not shown) [Compound 026, 2-[1H-Benzimidazol-2-yl-(3-fluorophenyl)methyl]-6-[4-(1-methyl-4-piperidyl)phenyl]isoindolin-1-one]: the IC50 against EGFR L858R amounted to 26 nM; on EGFR L858R/T790M, 7 nM; in experiment [1] (setting [2]) it was 2280 nM; in experiment [1] (setting [3]), 80 nM.

In the case of `Cc1cccc2[nH]c(C(c3cc(F)ccc3O)N3Cc4ccc(-c5ccc(C6CCN(C)CC6)cc5)cc4C3=O)nc12` (stereo not shown) [Compound 052, 2-[(5-fluoro-2-hydroxy-phenyl)-(4-methyl-1H-benzimidazol-2-yl)methyl]-6-[4-(1-methyl-4-piperidyl)phenyl]isoindolin-1-one; formic acid], the IC50 on EGFR L858R came out at 5 nM; on EGFR L858R/T790M, 2 nM; in experiment [1] (setting [2]), 4180 nM; in experiment [1] (setting [3]) it was 370 nM.
